The text below walks through data of EP4660190A1, “PHARMACEUTICALLY ACCEPTABLE SALT OF COMPOUND AND PREPARATION METHOD THEREFOR” (Jiangsu Chia Tai Fenghai Pharmaceutical Co., Ltd., priority 2023, dated 2024).

Series [1] has as its system MPTP-induced Parkinson's disease model mice. As to the kind of experiment: MPTP-induced mouse Parkinson's disease model, pole test. It is filed as in vivo, C57 mice. To be noted: mean ± SD.
The test system is the same in series [2]. Nature of the series: MPTP-induced mouse Parkinson's disease model, striatal dopamine (DOPA) detection. It is filed as in vivo, C57 mice. To be noted: striatum; positive control 20 mg/kg daily, four weeks; mean ± SD.
For series [3] the test system is unchanged. As to the kind of experiment: MPTP-induced mouse Parkinson's disease model, TH-positive fiber content in the striatum. Particulars: positive control 20 mg/kg daily, four weeks, mean ± SD. It is filed as in vivo, C57 mice.
For series [4] the test system is unchanged. As to the kind of experiment: MPTP-induced mouse Parkinson's disease model, TH-positive cell counts in the substantia nigra pars compacta. To be noted: positive control 20 mg/kg daily, four weeks, mean ± SD. It is filed as in vivo, C57 mice.
The test system is the same in series [5]. As to the kind of experiment: MPTP-induced mouse Parkinson's disease model, grip strength test. Particulars: positive control 20 mg/kg group; Before Modeling; mean ± SD.
For series [6], the system named is TDP-43-A315T transgenic mice of ALS model. As to the kind of experiment: TDP-43-A315T ALS mice, muscle tone test. It is filed as in vivo. To be noted: 25 mg/kg p.o., Mean±SEM.
The test system is the same in series [7]. Nature of the series: TDP-43-A315T ALS mice, rotarod test. It is filed as in vivo. To be noted: 25 mg/kg p.o., Mean±SEM. In general terms: The rotarod test checks motor coordination on a turning rod.
Series [8] relates to rat spinal cord injury model. Nature of the series: Rat spinal cord injury model, BBB locomotor scores. To be noted: 180 mg/kg single iv, mean±SD. It is filed as in vivo, Male SD rats. The text has this: The scoring method is as follows: [table]
Series [9] relates to rat spinal cord injury model. As to the kind of experiment: Rat spinal cord injury model, Neurofilament 200 (NF200) expression. Particulars: 180 mg/kg single iv, mean±SD, n=6. It is filed as in vivo, Male SD rats.
Series [10] concerns rat spinal cord injury model. Nature of the series: Rat spinal cord injury model, pathological changes. Particulars: 180 mg/kg single iv; spinal cord histopathology.

Like-named read-outs stand apart in the source and are kept apart here.

With `CCC/C(O)=C1/C(=O)Oc2ccccc21.[Mg]` [Example 5, (Z)-3-(1-hydroxybutylidene)benzofuran-2-one magnesium salt], the Appearance result is on record as “White solid” (0 h); “White solid” (High Humidity 75%, 10 d); “White solid” (High Humidity 92.5%, 10 d); “White solid” (High temperature 40°C, 10 d); “White solid” (High temperature 60°C, 10 d); “White solid” (Light, 10 d). Further, the Purity is 99.67% (0 h); 99.83% (High Humidity 75%, 10 d); 99.79% (High Humidity 92.5%, 10 d); 99.82% (High temperature 40°C, 10 d); 99.58% (High temperature 60°C, 10 d); 99.72% (Light, 10 d).
As to `CC/C=C(\O)C1C(=O)Oc2ccccc21.[Ca]` (centres unmarked) [Example 6, (Z)-3-(1-hydroxybutenyl)benzofuran-2-one calcium salt], the Appearance result is “White solid” (0 h); “White solid” (High Humidity 75%, 10 d); “White solid” (High Humidity 92.5%, 10 d); “White solid” (High temperature 40°C, 10 d); “White solid” (High temperature 60°C, 10 d); “White solid” (Light, 10 d). Moreover, the Purity came to 99.42% (0 h); 99.56% (High Humidity 75%, 10 d); 99.44% (High Humidity 92.5%, 10 d); 99.58% (High temperature 40°C, 10 d); 99.68% (High temperature 60°C, 10 d); 99.43% (Light, 10 d).
As to `CCC/C(O)=C1/C(=O)Oc2ccccc21.NCCO` [Example 8], the Appearance result reads like this: (0 h) “White solid”; (High Humidity 75%, 10 d) “White solid”; (High Humidity 92.5%, 10 d) “White solid”; (High temperature 40°C, 10 d) “White solid”; (High temperature 60°C, 10 d) “White solid”; (Light, 10 d) “White solid”. Further, the Purity reads like this: (0 h) 99.19%; (High Humidity 75%, 10 d) 99.71%; (High Humidity 92.5%, 10 d) 99.79%; (High temperature 40°C, 10 d) 99.75%; (High temperature 60°C, 10 d) 99.75%; (Light, 10 d) 99.78%.
Regarding `N[C@@H](Cc1ccc(O)c(O)c1)C(=O)O` [Levodopa, reference compound], the “Pole test results” value in [1] (positive control 20 mg/kg daily, four weeks, Study Endpoint) was found to be 8.76 ± 1.57 s; in series [1] (positive control 20 mg/kg group, Before Modeling) it was 9.40 ± 1.62 s. The DOPA in series [2] is reported as 1156.72±375.72^& ng/g. In addition, the “TH-Positive Fiber Content” value was 536968.78±68050.46^& in series [3] and 536,968.78±68,050.46 in [3] (listed as levodopa). Also, the “TH-Positive Cell counts” value in series [4] was 31.50±4.14^&. In addition, the “Grip Strength Test” value in series [5] turned out to be 272.61 ± 9.01 g.
Turning to `Nc1nc2ccc(OC(F)(F)F)cc2s1` [Riluzole, reference compound], the “Muscle Tone” value in series [6] (female mice, animal age 6 weeks) was 145.2 ± 5.444 g; in [6] (female mice, animal age 8 weeks) it was 177.8 ± 9.836 g; in [6] (female mice, animal age 10 weeks) it was 133.6 ± 12.04 g; in series [6] (female mice, animal age 12 weeks), 161.5 ± 3.666 g; in series [6] (female mice, animal age 13 weeks), 146.4 ± 6.928 g; in series [6] (female mice, animal age 14 weeks) it was 143.1 ± 9.165 g. Also, the “Muscle Tone” value stood at 149.0 ± 6.827 g in series [6] (female mice, animal age 16 weeks); 144.0 ± 10.127 g in [6] (male mice, animal age 6 weeks); 152.4 ± 10.35 g in [6] (male mice, animal age 8 weeks); 150.5 ± 14.46 g in [6] (male mice, animal age 10 weeks); 145.4 ± 5.551 g in series [6] (male mice, animal age 12 weeks); 147.8 ± 1.650 g in series [6] (male mice, animal age 13 weeks). The “Muscle Tone” value in series [6] (male mice, animal age 14 weeks) came out at 129.2 ± 1.250 g. Further, the “Rotarod performance” value in [7] (female mice, Dosing Schedule (weeks) 2) worked out at 269.8 ± 5.164 s; in series [7] (female mice, Dosing Schedule (weeks) 4), 258.8 ± 15.65 s; in series [7] (female mice, Dosing Schedule (weeks) 6) it was 275.3 ± 9.266 s; in [7] (female mice, Dosing Schedule (weeks) 8), 272.3 ± 10.56 s; in series [7] (female mice, Dosing Schedule (weeks) 10) it was 238.4 ± 16.32 s; in series [7] (female mice, Dosing Schedule (weeks) 12), 252.3 ± 16.24 s. Also, the “Rotarod performance” value in [7] (female mice, Dosing Schedule (weeks) 14) was 270.6 ± 12.70 s; in series [7] (female mice, Dosing Schedule (weeks) 16), 255.9 ± 17.39 s; in [7] (male mice, Dosing Schedule (weeks) 6) it was 250.8 ± 12.71 s; in series [7] (male mice, Dosing Schedule (weeks) 8), 236.4 ± 16.14 s; in [7] (male mice, Dosing Schedule (weeks) 10), 234.0 ± 10.64 s; in series [7] (male mice, Dosing Schedule (weeks) 11) it was 215.6 ± 31.32 s. Besides, the “Rotarod performance” value in series [7] (male mice, Dosing Schedule (weeks) 12) amounted to 202.4 ± 41.22 s; in [7] (male mice, Dosing Schedule (weeks) 13), 135.32 ± 76.92 s.
Take `C[C@H]1C[C@@H]2[C@H]([C@@H](O)C[C@@]3(C)[C@H]2CC[C@]3(O)C(=O)COC(=O)CCC(=O)O)[C@@]2(C)C=CC(=O)C=C12` [methylprednisolone succinate]: the “BBB Locomotor Scores” value in series [8] (3 d after dosing) is reported as 0.1± 0.3; in [8] (7 d after dosing) it was 2.8± 1.9; in [8] (14 d after dosing), 5.7±4.5; in [8] (28 d after dosing), 7.9±3.4; in series [8] (Before dosing), 0± 0. Further, the “Positive Count (number per field of view)” value in [9] is given as 22.2± 6.3 number per field of view. Moreover, in series [10], the “cases showing a reduction in lesions” value is listed as 3 out of 6.
As to “(Z)-3-(1-hydroxybutenyl)benzofuran-2-one meglumine salt [Example 9]”, the Appearance result was “White solid” (0 h); “White solid” (High Humidity 75%, 10 d); “Yellow oily liquid” (High Humidity 92.5%, 10 d); “White solid” (High temperature 40°C, 10 d); “White solid” (High temperature 60°C, 10 d); “White solid” (Light, 10 d). The Purity runs as follows: (0 h) 99.53%; (High Humidity 75%, 10 d) 99.01%; (High Humidity 92.5%, 10 d) 98.62%; (High temperature 40°C, 10 d) 99.45%; (High temperature 60°C, 10 d) 98.04%; (Light, 10 d) 99.60%.
Turning to “(Z)-3-(1-hydroxybutenyl)benzofuran-2-one potassium salt [Example 4]”, the Appearance result by setting is: (0 h) “White solid”; (High Humidity 75%, 10 d) “White solid”; (High Humidity 92.5%, 10 d) “White solid”; (High temperature 40°C, 10 d) “White solid”; (High temperature 60°C, 10 d) “White solid”; (Light, 10 d) “White solid”. For the same molecule, the Purity by setting is: (0 h) 99.41%; (High Humidity 75%, 10 d) 99.34%; (High Humidity 92.5%, 10 d) 99.47%; (High temperature 40°C, 10 d) 99.66%; (High temperature 60°C, 10 d) 99.58%; (Light, 10 d) 99.41%.
Consider “(Z)-3-(1-hydroxybutenyl)benzofuran-2-one sodium salt [Example 2]”, for which the “Impurities RRT1.41” value is reported as 0.10 (0 h); 0.12 (High Humidity 75%, 10 d); 0.14 (High temperature 60°C, 10 d); 0.07 (Light, 10 d). The “Impurities RRT1.47” value was determined as 0.11 (0 h); 0.10 (High Humidity 75%, 10 d); 0.09 (High temperature 60°C, 10 d); 0.09 (Light, 10 d). The “Impurities Total impurities” value (0 h) is 0.21; the “Impurities Total impurities” value (High Humidity 75%, 10 d) was found to be 0.22; the “Impurities Total impurities” value (High temperature 60°C, 10 d) came to 0.23; the “Impurities Total impurities” value (Light, 10 d) is recorded as 0.16.
As to “(Z)-3-(1-hydroxybutylidene)benzofuran-2-one piperazine salt [Example 7]”, the Appearance entry by setting is: (0 h) “Light yellow solid”; (High Humidity 75%, 10 d) “Light yellow solid”; (High Humidity 92.5%, 10 d) “Light yellow solid”; (High temperature 40°C, 10 d) “Light yellow solid”; (High temperature 60°C, 10 d) “Light yellow solid”; (Light, 10 d) “Light yellow solid”. Moreover, the Purity by setting is: (0 h) 99.59%; (High Humidity 75%, 10 d) 99.66%; (High Humidity 92.5%, 10 d) 99.54%; (High temperature 40°C, 10 d) 99.67%; (High temperature 60°C, 10 d) 99.72%; (Light, 10 d) 99.43%.
